Test results reported in patent publication US8937090B2, “Parakeratosis inhibitor, pore-shrinking agent and external composition for skin” (Shiseido Company, Ltd., priority 2005, dated 2015).

How the values were obtained:
hairless mouse (HR-1) = assay: Parakeratosis-inhibiting effect test (oleic acid applied to back of hairless mouse; visual rough skin evaluation and parakeratosis value); assay type: in vivo; details: for parakeratosis-inhibiting effect: in words, summary of Table 1; for Visual evaluation (average of four animals) / Parakeratosis value (average of four animals): sample 3 mass %; for Visual evaluation (average of four animals): rough skin score, control = 2.0, no skin roughness = 0.0, 3 days application after 10 mass % oleic acid; for Parakeratosis value (average of four animals): scale 1.0 to 3.0, higher = parakeratosis advanced, control 2.0
Experimental: Aqueous solutions (containing 30 mass % of ethanol) of 3 mass % of a β-alanine derivative or salt thereof were prepared mainly as the evaluation sample. The pH was regulated by hydrochloric acid or sodium hydroxide so as to be 7.0 to 7.5. When sample solubility was low, the solution was prepared accordingly.
100 μL of 10 mass % oleic acid solution (solvent: ethanol) were applied to the back of a hairless mouse (HR-1; Hoshino Laboratory Animals). Then the sample solution (β-alanine derivative, and the like) was applied 100 μL at a time. This procedure was continued for three days. […] At the same time, the stratum corneum at the back of the hairless mouse was peeled off with tape, the nuclei were stained by hematoxylin, and the degree of parakeratosis was observed and evaluated by a parakeratosis value within a range of 1.0 to 3.0 (in 0.25 increments).

[1] = system: cheeks of healthy human males; assay: Human pore-shrinking effect (replica of cheek pores, three-dimensional laser scanning microscope); assay type: in vivo; details: for pore-shrinking effect: in words, summary of Table 2; for Replica assessment value (average of n = 5): twice a day for one month, pore size rating (1-13) after minus before application, control 0.3
Experimental: An experiment was conducted whereby a sample was applied twice a day for one month to the cheeks of healthy human males in groups of 5 men each. Aqueous solutions (containing 15 mass % of ethanol) of 3 mass % of the β-alanine derivative or a salt thereof were prepared mainly as the evaluation sample. The pH was regulated by hydrochloric acid or sodium hydroxide so as to be 7.0 to 7.5. When the sample solubility was low, the solution was prepared accordingly. The control was an aqueous 15% ethanol solution. The sample aqueous solution and the control aqueous solution were applied to one half of the face at a time.
A replica was collected before and after continuous application, and changes in the shape of the pores at the same site were observed using a three-dimensional laser scanning microscope. The size of the pores was visually evaluated in the 13 steps of 1 through 13 (with the pores becoming larger as the numbers became larger), the difference in the ratings before and after application (after application—before application) was calculated, and the efficacy of each sample was studied using this difference as the replica assessment value.

hairless mice (HR-1) = assay: Inhibiting effect on rough skin induced by oleic acid application (transepidermal water loss); assay type: in vivo, mouse; parameters: ΔTEWL value: unit not given here; details: for rough skin preventing/ameliorating effect (ΔTEWL value versus control aqueous solution): in words, summary of Table 3; for ΔTEWL value: sample 3 mass %, average of four mice, 3 days after 10 mass % oleic acid, control 12.0, increase = rough skin worse
Experimental: In order to investigate the inhibiting effect of β-alanine derivatives and salts thereof on rough skin induced by oleic acid application, the transepidermal water loss (TEWL value) before and after application was measured, the difference was compared with the control (control aqueous solution), and the effect was determined. […] The TEWL was determined using the TM210 TEWA Meter (Courage+Khazaka Electronic GmBH).
100 μL of 10 mass % oleic acid (solvent: ethanol) was applied to the back of hairless mice (HR-1, four mice per group). Then a sample solution (β-alanine derivatives) was applied 100 μL at a time. This procedure was continued for three days. On the following day, the TEWL value of the back was determined and the values of the four animals were averaged.

panel of 20 women = assay: Sensory irritation tests; assay type: in vivo, human; details: for sensory irritation: in words, summary of Table 4; for Evaluation (sensory irritation, class of average rating): sample 3 mass %, 1 mL to cheek, rated for ten minutes
Experimental: 1 mL of a control aqueous solution and the sample aqueous solution prepared in Example 1 were applied using a cotton swab to the left or right cheek, respectively, of each member of a panel of 20 women, and the irritating sensation was evaluated every 30 seconds for ten minutes beginning immediately after application, whereby a final evaluation was reported. The evaluation of the irritating sensation was made based on the following four levels of rating criteria, and the average rating was calculated, whereby the average was classified by the following criteria.
3: Continuation is not possible because of extremely strong irritation, such as tingling sensation, burning sensation, stinging sensation, itching, and the like.
2: Intolerable because of strong irritation, such as tingling sensation, burning sensation, stinging sensation, itching, and the like.
1: Tolerable, but with slight irritation such as tingling sensation, burning sensation, stinging sensation, itching, and the like.
0: Not particularly irritating.
(Evaluation Criteria) • A: average rating of less than 0.2 • B: average rating of from 0.2 to less than 1.0 • C: average rating of from 1.0 to less than 2.0 • D: average rating of 2.0 or greater

Row | Structure (SMILES) | parakeratosis-inhibiting effect (hairless mouse (HR-1)) | Visual evaluation (average of four animals) (hairless mouse (HR-1)) | Parakeratosis value (average of four animals) (hairless mouse (HR-1)) | pore-shrinking effect [1] | Replica assessment value (average of n = 5) ([1]; sample 1.0 mass %) | rough skin preventing/ameliorating effect (ΔTEWL value versus control aqueous solution) (hairless mice (HR-1)) | ΔTEWL value (hairless mice (HR-1)) | sensory irritation (panel of 20 women) | Evaluation (sensory irritation, class of average rating) (panel of 20 women) | Replica assessment value (average of n = 5) ([1]; sample 3 mass %)
1 | O=C(O)CCNC(=O)c1ccccc1 [N-benzoyl-β-alanine] | reduced the parakeratosis value | 1.1 | 1.1 | effect was seen | −1.5 | effect was seen | 4.0 | no problem of sensory irritation | A (average rating of less than 0.2) | 
2 | CNCCC(=O)O [N-methyl-β-alanine] | reduced the parakeratosis value | 1.1 | 1.2 | effect was seen |  | effect was seen | 6.8 | no problem of sensory irritation | A (average rating of less than 0.2) | −1.0
3 | O=C(O)CCNc1ccccn1 [N-(2′-pyridyl)-β-alanine] | reduced the parakeratosis value | 1.4 | 1.3 | effect was seen |  | effect was seen | 5.5 | no problem of sensory irritation | A (average rating of less than 0.2) | −0.8
4 | O=C(O)CCNCC1CCCCC1 [N-cyclohexylmethyl-β-alanine] | reduced the parakeratosis value | 1.1 | 1.1 | effect was seen |  | effect was seen | 8.9 | no problem of sensory irritation | A (average rating of less than 0.2) | −0.8
5 | O=C(O)CCNC1CCCCC1 [N-cyclohexyl-β-alanine] | reduced the parakeratosis value | 1.1 | 1.1 | effect was seen |  | effect was seen | 9.0 | no problem of sensory irritation |  | −0.9
6 | O=C(O)CCNCc1ccccc1 [N-benzyl-β-alanine] | reduced the parakeratosis value | 1.2 | 1.2 | effect was seen |  | effect was seen | 8.9 | no problem of sensory irritation | A (average rating of less than 0.2) | −0.8
